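Cultured in 96-well plates, cells were exposed to test compound for 48 hours across five concentrations. Here, GI50 denotes the concentration required for 50% inhibition of growth. At the TGI there is no net growth.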
Tests used:
Assay in all cases: NCI anticancer screen, dose series, 48 h
SF-268 CNS = test system: SF-268 CNS
T-47D breast = test system: T-47D breast
SNB-75 CNS = test system: SNB-75 CNS
UACC-257 melanoma = test system: UACC-257 melanoma
LOX IMVI melanoma = test system: LOX IMVI melanoma
TK-10 renal = test system: TK-10 renal
OVCAR-8 ovarian = test system: OVCAR-8 ovarian
UO-31 renal = test system: UO-31 renal
COLO 205 colon = test system: COLO 205 colon
OVCAR-5 ovarian = test system: OVCAR-5 ovarian
RXF 393 renal = test system: RXF 393 renal
KM12 colon = test system: KM12 colon
HCT-116 colon = test system: HCT-116 colon
EKVX NSCLC = test system: EKVX NSCLC
HS 578T breast = test system: HS 578T breast
CCRF-CEM leukemia = test system: CCRF-CEM leukemia
786-0 renal = test system: 786-0 renal
NCI-H226 lung = test system: NCI-H226 lung
NCI-H522 lung = test system: NCI-H522 lung
OVCAR-4 ovarian = test system: OVCAR-4 ovarian
IGROV1 ovarian = test system: IGROV1 ovarian
DU-145 prostate = test system: DU-145 prostate
MOLT-4 leukemia = test system: MOLT-4 leukemia
RPMI-8226 leukemia = test system: RPMI-8226 leukemia
NCI-H460 lung = test system: NCI-H460 lung
UACC-62 melanoma = test system: UACC-62 melanoma
SF-539 CNS = test system: SF-539 CNS
U251 CNS = test system: U251 CNS
A498 renal = test system: A498 renal

O[C@H](CN1CC1)[C@@H](O)CN1CC1
TGI (SF-268 CNS): 30.8 µM | GI50 (T-47D breast): 7.13 µM | TGI (T-47D breast): 66.6 µM | GI50 (SNB-75 CNS): 2.94 µM | TGI (SNB-75 CNS): 21.4 µM | GI50 (UACC-257 melanoma): 11.6 µM | TGI (UACC-257 melanoma): 89.9 µM | GI50 (LOX IMVI melanoma): 2.81 µM | TGI (LOX IMVI melanoma): 28.4 µM | GI50 (TK-10 renal): 21.3 µM | TGI (TK-10 renal): 77.6 µM | GI50 (OVCAR-8 ovarian): 3.75 µM | TGI (OVCAR-8 ovarian): > 100 µM | GI50 (UO-31 renal): 2.65 µM | TGI (UO-31 renal): 13.1 µM | GI50 (COLO 205 colon): 12.4 µM | TGI (COLO 205 colon): 25.5 µM | GI50 (OVCAR-5 ovarian): 11.2 µM | TGI (OVCAR-5 ovarian): 48 µM | GI50 (RXF 393 renal): 7.35 µM | TGI (RXF 393 renal): 26.1 µM | GI50 (KM12 colon): 11.7 µM | TGI (KM12 colon): 28.1 µM | GI50 (HCT-116 colon): 5.83 µM | TGI (HCT-116 colon): 35.6 µM | GI50 (EKVX NSCLC): 15 µM | TGI (EKVX NSCLC): 49.6 µM | GI50 (HS 578T breast): 20.4 µM | TGI (HS 578T breast): 79.2 µM | GI50 (CCRF-CEM leukemia): 0.604 µM | TGI (CCRF-CEM leukemia): > 100 µM | GI50 (786-0 renal): 3.42 µM | TGI (786-0 renal): 13.5 µM | GI50 (NCI-H226 lung): 3.17 µM | TGI (NCI-H226 lung): 26 µM | GI50 (NCI-H522 lung): 8.2 µM | TGI (NCI-H522 lung): 83.3 µM | GI50 (OVCAR-4 ovarian): 15.4 µM | TGI (OVCAR-4 ovarian): > 100 µM | GI50 (IGROV1 ovarian): 10.7 µM | TGI (IGROV1 ovarian): 33.3 µM | GI50 (DU-145 prostate): 3.25 µM | TGI (DU-145 prostate): 26.8 µM | GI50 (MOLT-4 leukemia): 0.86 µM | TGI (MOLT-4 leukemia): > 100 µM | GI50 (RPMI-8226 leukemia): 6.74 µM | TGI (RPMI-8226 leukemia): > 100 µM | GI50 (NCI-H460 lung): 0.496 µM | TGI (NCI-H460 lung): 22.9 µM | GI50 (UACC-62 melanoma): 3.96 µM | TGI (UACC-62 melanoma): > 100 µM | GI50 (SF-539 CNS): 2.58 µM | TGI (SF-539 CNS): 15.5 µM | GI50 (U251 CNS): 5.78 µM | TGI (U251 CNS): 45.6 µM | GI50 (A498 renal): 5.24 µM | TGI (A498 renal): 21.7 µM

— PubChem BioAssay (NCI)
